Results reported in PMC9611727, “Optimization of a Novel Mandelamide-Derived Pyrrolopyrimidine Series of PERK Inhibitors” (Pharmaceutics, 2022).

Key:
PERK = target: T1, PERK (Homo sapiens, UniProt Q9NZJ5); experiment: PERK biochemical LanthaScreen TR-FRET assay (GFP-eIF2a phosphorylation); settings: cell-free TR-FRET, GFP-eIF2a substrate; read-out: PERK IC50
T1 sequence (Q9NZJ5 30-1116): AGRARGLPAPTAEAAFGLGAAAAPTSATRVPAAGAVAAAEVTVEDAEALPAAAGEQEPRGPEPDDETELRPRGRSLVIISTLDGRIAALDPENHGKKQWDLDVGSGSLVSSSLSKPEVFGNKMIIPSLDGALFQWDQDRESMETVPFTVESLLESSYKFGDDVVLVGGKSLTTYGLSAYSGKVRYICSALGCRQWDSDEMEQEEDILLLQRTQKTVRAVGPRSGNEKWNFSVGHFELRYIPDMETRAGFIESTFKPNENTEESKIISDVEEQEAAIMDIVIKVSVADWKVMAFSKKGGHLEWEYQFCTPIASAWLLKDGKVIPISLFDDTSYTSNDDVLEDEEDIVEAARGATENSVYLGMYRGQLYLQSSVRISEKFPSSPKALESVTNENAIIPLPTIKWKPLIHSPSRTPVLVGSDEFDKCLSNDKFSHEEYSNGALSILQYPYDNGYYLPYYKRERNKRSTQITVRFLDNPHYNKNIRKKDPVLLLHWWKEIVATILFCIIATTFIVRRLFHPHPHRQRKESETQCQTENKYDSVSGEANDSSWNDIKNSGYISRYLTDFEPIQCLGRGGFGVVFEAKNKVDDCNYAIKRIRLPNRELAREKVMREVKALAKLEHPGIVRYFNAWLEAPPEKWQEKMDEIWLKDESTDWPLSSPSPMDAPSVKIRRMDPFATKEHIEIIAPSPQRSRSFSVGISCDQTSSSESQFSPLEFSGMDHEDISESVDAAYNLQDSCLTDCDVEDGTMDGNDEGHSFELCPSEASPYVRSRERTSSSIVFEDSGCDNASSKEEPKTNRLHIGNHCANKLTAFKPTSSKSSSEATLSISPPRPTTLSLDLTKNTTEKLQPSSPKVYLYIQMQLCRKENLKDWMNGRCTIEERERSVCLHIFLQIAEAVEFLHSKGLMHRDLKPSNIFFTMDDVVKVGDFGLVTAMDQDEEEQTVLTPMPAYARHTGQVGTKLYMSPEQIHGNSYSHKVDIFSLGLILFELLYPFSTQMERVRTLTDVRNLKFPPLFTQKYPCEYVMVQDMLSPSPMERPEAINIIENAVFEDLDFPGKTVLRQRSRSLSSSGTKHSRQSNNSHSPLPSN
Experimental: Methods used to evaluate biochemical PERK activity are described and published elsewhere. In brief, biochemical PERK activity is evaluated using a LanthaScreenTM ([…]) TR-FRET assay to detect phosphorylation of a GFP-tagged eIF2a substrate (ThermoFisher). Excitation at […] of a terbium chelate donor fluorophore in an eIF2a antibody results in energy transfer to GFP acceptor fluorophore upon eIF2a phosphorylation by PERK. Reaction buffer was composed of 50 mM HEPES (pH 7.4), 10 mM MgCl2, 1 mM EGTA and 0.01% (v/v) BrijTM-35. Reactions were initiated by the addition of substrate and ATP, followed by incubation for 1 h at RT prior to addition of EDTA and the anti-peIF2a antibody. FRET was measured by an EnVision Plate Reader (PerkinElmer). Data were plotted as percent inhibition along a 10-point 3-fold dilution series of inhibitors. IC50 values were calculated using 4-parameter logistical fitting in XLFit.
(§1) The PERK activity of analog I was evaluated using cell-free biochemical assays. In these assays, PERK phosphorylation of eIF2a was assessed using a FRET-based labelled protein assay. Compounds were then evaluated for cellular activity by quantifying inhibition of eIF2a phosphorylation in HEK293 cells treated with the ER inducer tunicamycin [7].

p-eIF2α = experiment: Cellular PERK inhibition: p-eIF2a TR-FRET in tunicamycin-treated HEK293-EGFP-eIF2a cells; format: cell-based; settings: Homo sapiens; HEK293 cells, tunicamycin-induced ER stress; read-out: p-eIF2α IC50
Experimental: Methods used to evaluate in vitro cellular PERK inhibition are described and published elsewhere. In brief, stableHEK293 cells were created using lentiviral particles harboring a GFP-eIF2a expression vector. Transfectants were selected by puromycin and enriched using fluorescent cell sorting based on GFP expression. HEK293-EGFP-eIF2a cells were plated at 5000 cells/well in 384-well assay plates and incubated overnight. The following day, pyrrolopyrimidine analogs were added to wells using an Echo acoustic dispenser and incubated for 30 min. ER stress was induced by the addition of tunicamycin to the wells at […] for 2 h. Cells were lysed and peIF2a was evaluated using a TR-FRET system, as described above.
as §1

MOLM-13 (FLT3-ITD) = experiment: Cell viability assay, MOLM-13; format: cell-based; settings: Homo sapiens
Kasumi-1 (FLT3wt) = experiment: Cell viability assay, Kasumi-1; format: cell-based; settings: Homo sapiens

| Compound | IC50 (PERK) [nM] | IC50 (p-eIF2α) [nM] | IC50 (MOLM-13 (FLT3-ITD)) [nM] | IC50 (Kasumi-1 (FLT3wt)) [nM] |
| --- | --- | --- | --- | --- |
| COc1cc(NC(=O)[C@H](O)c2cccc(F)c2)ccc1-c1cn(C)c2nc(C)nc(N)c12 [Compound 60] | 236 | 1850 | – | – |
| Cc1nc(N)c2c(-c3ccc(NC(=O)[C@H](O)c4cccc(F)c4)cc3OC(F)(F)F)cn(C)c2n1 [Compound 61] | 23 | 435 | – | – |
| Cc1nc(N)c2c(-c3ccc(NC(=O)[C@H](O)c4cccc(F)c4)cc3)cn(C)c2n1 [Compound 62] | 2 | 126 | – | – |
| Cc1nc(N)c2c(-c3ccc(NC(=O)[C@H](O)c4cccc(C(F)(F)F)c4)cc3)cn(C)c2n1 [Compound 63] | 2.8 | 13 | – | – |
| Cc1nc(N)c2c(-c3ccc(NC(=O)[C@H](O)c4cccc(Br)c4)cc3)cn(C)c2n1 [Compound 64] | 1.5 | 14 | – | – |
| Cc1nc(N)c2c(-c3c(C)cc(NC(=O)C(O)c4cccc(F)c4)cc3F)cn(C)c2n1 (centres unmarked) [Compound 67] | 22 | 78 | – | – |
| Cc1nc(N)c2c(-c3c(C)cc(NC(=O)C(O)c4cccc(F)c4)cc3C)cn(C)c2n1 (centres unmarked) [Compound 68] | 13 | 82 | – | – |
| Cc1nc(N)c2c(-c3ccc(NC(=O)[C@H](O)c4cccc(F)c4)c(F)c3)cn(C)c2n1 [Compound 69] | 1 | 26 | – | – |
| Cc1nc(N)c2c(-c3cc(F)c(NC(=O)C(O)c4cccc(F)c4)cc3F)cn(C)c2n1 (centres unmarked) [Compound 71] | 1 | 34 | – | – |
| Cc1nc(N)c2c(-c3ccc(NC(=O)[C@H](O)c4cccc(F)c4)nc3C)cn(C)c2n1 [Compound 72] | 17 | 105 | – | – |
| Cc1nc(N)c2c(-c3ccc(NC(=O)[C@H](O)c4cccc(C(F)(F)F)c4)nc3C)cn(C)c2n1 [Compound 73] | 13 | 51 | – | – |
| Cc1nc(N)c2c(-c3cnc(NC(=O)[C@H](O)c4cccc(F)c4)cc3C)cn(C)c2n1 [Compound 74] | 8.3 | 146 | – | – |
| Cc1nc(N)c2c(-c3cnc(NC(=O)[C@H](O)c4cccc(C(F)(F)F)c4)cc3C)cn(C)c2n1 [Compound 75] | 6.8 | 95 | – | – |
| Cc1nc(N)c2c(-c3cnc(NC(=O)[C@H](O)c4cccc(F)c4)nc3C)cn(C)c2n1 [Compound 76] | 647 | > 10000 | – | – |
| CC1(COc2ccc3c(c2)ncn3-c2ccc3cccc(N4CCC(N)CC4)c3n2)COC1 [Crenolanib] | – | – | 3 | 80 |
| CCc1nc(C(N)=O)c(Nc2ccc(N3CCC(N4CCN(C)CC4)CC3)c(OC)c2)nc1NC1CCOCC1 [Gilteritinib] | – | – | 14 | 478 |
